Experimental data published in article PMC10721898, “C5 methylation confers accessibility, stability and selectivity to picrotoxinin” (Nature Communications, 2023).
Where “and” joins values, the source holds several entries; their conditions need not be identical. Equal values may be shown once.

What was measured:
[1] = Degradation in dilute sulfuric acid; format: physicochemical; conditions: for stability to acid: 1 mol % H2SO4 (Fig. 1b); for degradation in acid: warming, 1% H2SO4, 0.18 M, aqueous
[2] = Stability in human plasma; format: in vitro ADME; conditions: for T½ in human plasma / half-life at 2 µM: 37 °C, incubation to 120 min, extrapolated half-life, n = 2; for half-life at 2 µM / remaining at 0 h, 2 µM / remaining at 10 min, 2 µM / remaining at 0.5 h, 2 µM / remaining at 1 h, 2 µM / remaining at 2 h, 2 µM: both sexes, human, plasma; for half-life at 2 µM: read-out: T½ in human plasma; for remaining at 0 h, 2 µM: 0 min; for remaining at 0.5 h, 2 µM: 30 min; for remaining at 1 h, 2 µM: 60 min; for remaining at 2 h, 2 µM: 120 min
Text: We investigated the relative rates of esterase-mediated hydrolysis[17] observed in mouse and human plasma, to evaluate potential for future translational applications. […] Due to the high stability of the C15 lactone, identified above, combined with the kinetic lability and reversible opening of the C11 lactone identified previously, enzymatic degradation in serum likely reflects a combination of reversible C11 hydrolysis[38] (unaffected by C5 methylation) and irreversible C15 hydrolysis (obstructed by C5 methylation)[17]. No prior studies have identified PXN modifications that enhance metabolic stability, partly due to the difficulty of synthetic modification and partly due to the prior incorrect assignment of the site of kinetic hydrolysis (C11 vs. C15)[38].
Test compound working solution: 5 μL of tested compound stock solution (10 mM in DMSO) were diluted with 495 μL of DMSO (concentration: 100 μM, 100% DMSO). Propantheline bromide working solution: 5 μL of propantheline bromide stock solution (10 mM in DMSO) were diluted with 495 μL of H2O (concentration: 100 […]
Supplementary Table 6. Test system.
Species/ Matrix Minimum No. of Anticoagulant Vendor
CD-1 Mouse 20 Male EDTA-K2 Beijing Vital River Laboratory
Human Plasma 3 Male & 3 Female EDTA-K2 BioreclamationIVT
The pooled frozen plasma was thawed in a water bath at 37 °C prior to experiment. Plasma was centrifuged at 1968 g (4000 rpm) for 5 min and the clots were removed. Using an Apricot automation work station, 98 μL/well of blank plasma were added to all 96-well reaction plates. (Blank, T0, T10, T30, T60 and T120) . An Apricot automation workstation was used to add 2 μL/well of working solution (100 μM) to all reaction plates except Blank. (T0, T10, T30, T60 and T120) . All reaction plates containing mix tures of compound a nd plasma were incubated at 37 °C in water bath. The reaction plates were incubated at 37 °C, and timer was started. At the end of incubation, 400 μL of stock solution was added (200 ng/mL tolbutamide and 200 ng/mL labetalol in MeCN) to precipitate protein and mixed thoroughly. Each plate was sealed and shaken for 20 minutes, then centrifuged at 1968 g (4000 rpm) and 4 °C for 20 minutes. After centrifugation, an Apricot automation workstation was used to transfer 150 μL supernatant. Each bioanalysis plate was sealed and shaken for 10 minutes prior to LC -MS/MS […]
The % remaining of test compound after incubation in plasma was calculated using following equation:
% Remaining= 100 x (PAR at appointed incubation time / PAR at T0 time) where PAR is the peak area ratio of analyte versus internal standard (IS) The appointed incubation time points are T0 (0 min), Tn (n=0, 10, 30, 60, 120 min)
Supplementary Table 7. %Remaining of test compound in two plasmas.
Compound Time point (min) % Remaining T½ (min)

Drosophila RDL = target: T1, Drosophila RDL (Drosophila melanogaster, UniProt P25123); assay: RDL receptors assay: two-electrode voltage clamp electrophysiology in Xenopus oocytes; format: cell-based
T1 construct: expressed in transfected cells; host or cells: Xenopus oocytes (Ecocyte, Austin, TX) microinjected with capped cRNA
T1 sequence (P25123 45-606): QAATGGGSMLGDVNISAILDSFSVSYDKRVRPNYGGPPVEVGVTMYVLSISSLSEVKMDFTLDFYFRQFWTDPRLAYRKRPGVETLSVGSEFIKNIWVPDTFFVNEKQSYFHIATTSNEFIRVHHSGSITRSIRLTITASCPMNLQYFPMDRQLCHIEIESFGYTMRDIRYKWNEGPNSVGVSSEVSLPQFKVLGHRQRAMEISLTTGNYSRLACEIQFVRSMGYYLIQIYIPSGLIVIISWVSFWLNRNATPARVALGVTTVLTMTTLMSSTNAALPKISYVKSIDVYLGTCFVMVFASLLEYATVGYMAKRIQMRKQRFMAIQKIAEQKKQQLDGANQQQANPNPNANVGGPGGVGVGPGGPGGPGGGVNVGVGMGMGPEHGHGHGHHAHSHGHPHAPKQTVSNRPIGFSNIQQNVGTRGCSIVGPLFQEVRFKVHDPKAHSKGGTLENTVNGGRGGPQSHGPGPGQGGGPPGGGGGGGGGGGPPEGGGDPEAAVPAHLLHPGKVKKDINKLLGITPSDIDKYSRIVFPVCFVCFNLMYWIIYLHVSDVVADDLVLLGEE
Experimental: 5. RDL receptors binding assay
The Drosophila RDL sequence (NP_01261616.1) was cloned into the pGH19 backbone via Gibson assembly for capped cRNA synthesis using the T7 mMessage mMachine kit (Invitrogen). cRNA samples were stored at - 80 °C until use. Ready to inject Xenopus oocytes were obtained from Ecocyte (Austin, TX) and microinjected using a Nanoinject III (Drummond Scientific) with 4 nL of cRNA (1 μg/μL). The oocytes were then incubated at 16 °C in ND96 storage solution (93.5 mM NaCl, 2 mM KCl, 1.8 mM CaCl 2·2H2O, 2 mM MgCl 2·6H2O, 5 mM HEPES at pH 7.5). Recording were made 1 -6 days post injection.
Electrophysiology experiments were performed using an automated two -electrode voltage clamp set -up (Roboocyte 2, Mutlichannel Systems). Recording head were filled with 3M KCl and gave resistan ce of 100-2000 kΩ in medium. Membrane potential was held at -60 mV and current signal was sampled at 20 kHz.
Experiments were performed at room temperature using Modified Barth’s Saline (MBS) (88 mM NaCl, 1 mM KCl, 2.4 mM NaHCO 3, 15 mM HEPES, 0.3 mM Ca(NO3)2, 0.41 mM CaCl 2, and 0.82 mM MgSO 4·7H2O at pH 7.4). Oocytes were perfused with MBS at 5 mL/min in all assays. GABA and all compounds were dissolved in MBS and a 0.1% DMSO negative control was utilized to correct for any solvent effect.
Initial block potential of each compound was assessed utilizing a pre -incubation method (MBS (30 sec), 10 μM GABA (15 sec), MBS wash (60 sec), compound (60 sec), compound + 10 μM GABA (15 sec), compound (60 sec), compound + 10 μM GABA (15 sec), MBS wash (60 sec) with 10 μM of each test compound. The maximum signal of the second co -application was compared to the initial GABA response to determine the % block and then standardized against the corresponding value of the 0.1% DMSO control. Dose responses were performed for any compound showing >50% block in the initial test using 10, 1, and 0.1 μM. The IC50 values were fit using an inhibitor vs response 4 -parameter fit (GraphPad Prism 8.1.2).
Supplementary Table 9. IC50 values of test compound
Compound IC50 (µM) Compound IC50 (µΜ)

| Compound | stability to acid [1] | degradation in acid [1] | increase of extrapolated half-life by C5 methylation, human plasma ([2]; 5MePXN vs. PXN) | T½ in human plasma [2] | half-life at 2 µM [2] | remaining at 0 h, 2 µM [2] | remaining at 10 min, 2 µM [2] | remaining at 0.5 h, 2 µM [2] | remaining at 1 h, 2 µM [2] | remaining at 2 h, 2 µM [2] | IC50 (Drosophila RDL) |
| --- | --- | --- | --- | --- | --- | --- | --- | --- | --- | --- | --- |
| C=C(C)C1C2OC(=O)C1(C)C1(O)CC3OC34C(=O)OC2C41C (stereo not drawn) [5MePXN, 5-methylpicrotoxinin] | stable | did not react at all | 2.7 X | 4.82 h and > 4.82 h | 4.82 h | 100% | 103% | 93.7% | 84.5% | 77.7% | 1710 nM |
| C=C(C)[C@@H]1[C@H]2OC(=O)[C@@H]1[C@]1(O)C[C@H]3O[C@]34C(=O)O[C@H]2[C@]14C [PXN, picrotoxinin] | unstable | clean conversion to picrotoxic acid (32) in 24 h |  | 1.8 h | 1.8 h | 100% | 130% | 114% | 72.9% | 55.8% | 800 nM |
